{"source": "patent US20120115742A1", "about": "“METHODS FOR IDENTIFICATION” (Cambridge Enterprise Limited, priority 2009, published 2012)", "key": {"Panc-2H4 cells": {"tested_on": "Panc-2H4 cells", "assay": "Human Panc-2H4 insulin suppression assay", "format": "cell-based", "text": "Two different assays for “classical” sstr2 functions were adopted: (1) cultured foetal rat pituitary cells secreted growth hormone which is inhibited by sstr2 agonists in a dose-dependent fashion and (2) selected glucose-sensitive sub-clones of the human Panc-1 cell line secrete insulin which is inhibited by sstr2 agonists in a dose-dependent fashion.\nGlucose-sensitive sub-clones of the human Panc-1, a cell line derived from a pleiomorphic epithelioid carcinoma of the exocrine pancreas, were obtained essentially as described by Hamil et al. (2008) Biomed. Sci. Instrum. 44:441-6. Briefly, Panc-1 cells were subcultured in 24 well plates, and the medium was supplemented with an additional 5% glucose. […] The resulting sub-lines were then tested for glucose sensitivity by preparing wells of a 96-well plate (5×10^4 cells per well) which were then exposed to cultured medium containing a range of glucose concentrations (low glucose DMEM, DMEM, DMEM+1% glucose, DMEM+2.5% glucose and DMEM+5% glucose). After 24 hrs incubation, the conditioned medium was collected and assayed for insulin secretion by ELISA (Linco; cat# EZHI-14K) in accordance with the manufacturer's instructions. […] Further 96 well plates were prepared using Panc-2H4 (5×10^4 cells per well) in DMEM. After 24 hrs, the medium was switched to DMEM+5% glucose containing various test agents at various concentrations (triplicate wells per condition). After a further 24 hrs, the conditioned medium was harvested and the concentration of insulin was determined by ELISA as described above.\nResults were reported as the mean SD, expressed as the fold change from cells in the presence of vehicle only."}, "Jurkat-D3B cells": {"tested_on": "Jurkat-D3B cells", "assay": "SDF-1α induced migration of Jurkat-D3B cells expressing sstr2", "format": "cell-based, human", "settings": "Jurkat-D3B versus parental Jurkat", "protocol": "Methods: Total mRNA was prepared from Panc-1 cells (a human pancreas cell line which is well known to express high levels of sstr2) using the RNAqueous 4PCR kit (Ambion, Cat code #1914) in accordance with the manufacturer's instructions. The mRNA was then reverse transcribed (using the RETROscript kit; Ambio) to yield a cDNA preparation. A full length cDNA of the sstr2 gene was then obtained by PCR (using a Peltier PTC-200 thermal cycler using the following cycle times and conditions: 94° C. for 2 min, followed by 30 cycles of 94° C., for 30 sec, 55° C. for 30 sec, 72° C. for 1 min and finally 72° C. for 10 min), and isolated by preparative gel electrophoresis. The sequence of the sstr2 cDNA was confirmed by sequencing. The sstr2 cDNA was treated with EcoRI and Xhol to generate sticky ends, which allowed directional cloning into the polylinker of the plasmid pcDNA3.1+ (Invitrogen) followed by ligation ([…] ligation reactions were run with 400 T4 DNA ligase (New England Biolabs) and the maximal amounts of DNA with an insert:plasmid ratio of 3:1 in ligase buffer incubated overnight at 13° C.). […]\nA number of individual cell lines were obtained in this way, which expressed significant levels of sstr2 on the cell surface, detected by flow cytometry using the human-sstr2 antibody (Sigma, 50694; see Example 3 for details of the flow cytometry protocol used). […]"}}, "note": "Read-outs that look alike come from different tables or passages of the source."}
{"substance": "(S)-3-(2′,2′-dimethyldodecanoyl)amino-caprolactam [BN83250]", "values": [{"measurement": "EC50", "setting": "Panc-2H4 cells; Table 3, read-out: Human Panc-2H4 insulin suppression assay ED50", "result": 1, "unit": "µM"}, {"measurement": "Human Panc-2H4 insulin suppression assay Max effect", "setting": "Panc-2H4 cells; Table 3, suppression compared to vehicle", "result": 28, "unit": "%"}, {"measurement": "Panc-2H4 insulin suppression assay Max Effect", "setting": "Panc-2H4 cells; Table 5", "result": 28, "unit": "%"}, {"measurement": "EC50", "setting": "Panc-2H4 cells; Table 5, read-out: Panc-2H4 insulin suppression assay (“classical” target) ED50", "result": 1, "unit": "µM"}, {"measurement": "inhibition of insulin secretion by Panc-2H4", "setting": "Panc-2H4 cells; highest concentrations tested", "result": "None of these agents inhibited insulin secretion"}, {"measurement": "increase in BSCI sensitivity by ectopic expression of sstr2", "setting": "Jurkat-D3B cells", "result": "more than 100 fold"}]}
